The text below walks through data of patent US20250027035A1, “HEAVY METAL-ANTIBIOTIC MULTIPLE RESISTANT BACTERIA AND ITS APPLICATION” (priority 2023, published 2025).

One test has as its system Rossellomorea oryzaecorticis ZC255. Kind of test: Metal tolerance of the strain in 2216E liquid medium containing heavy metal. The conditions noted are these: 2216E liquid medium containing the heavy metal. The class given is cell-based. On the procedure: • Step 1: the single colonies in Embodiment 1 ‘2.1 morphological characteristics’ are selected and added to the 2216E liquid medium for 24 h to obtain the seed liquid, and then it is added to the liquid containing heavy metals or antibiotics for 48 h. • Step 2: the concentration of heavy metals/antibiotics before and after the addition of seed solution is measured by atomic absorption.
In addition, the highest tolerance concentration of the strain to Cd2+is 820 mg/L; the highest tolerance concentration of Zn2+, Ni2+, Pb2+and Cr3+is 2660 mg/L, 1210 mg/L, 1640 mg/L and 400 mg/L respectively.
Regarding `[Pb+2]` [Pb2+], the “maximum (highest) tolerance concentration of the strain” value (shortened to “maximum”) is recorded as 1640 mg/L.

For `[Ni+2]` [Ni2+], the “maximum” value is 1210 mg/L.

Turning to `[Cd+2]` [Cd2+], the “maximum” value was found to be 820 mg/L.

With `[Zn+2]` [Zn2+], the “maximum” value came to 2660 mg/L.

Consider `[Cr+3]` [Cr3+], for which the “maximum” value is reported as 400 mg/L.

The next test shares this test system. Description: Drug sensitivity test of strains (antibiotic tolerance). On Results of drug sensitivity test of strains: key: R: resistance; S: sensitivity; I: betweenness. The class given is cell-based.
Conditions: not given
`CN[C@H](CC(C)C)C(=O)N[C@H]1C(=O)N[C@@H](CC(N)=O)C(=O)N[C@H]2C(=O)N[C@H]3C(=O)N[C@H](C(=O)N[C@H](C(=O)O)c4cc(O)cc(O)c4-c4cc3ccc4O)[C@H](O)c3ccc(c(Cl)c3)Oc3cc2cc(c3O[C@@H]2O[C@H](CO)[C@@H](O)[C@H](O)[C@H]2O[C@H]2C[C@](C)(N)[C@H](O)[C@H](C)O2)Oc2ccc(cc2Cl)[C@H]1O` [Vancomycin]: the “Results of drug sensitivity test of strains” value (shortened to “Results”) is “S”.

Regarding Gentamicin, the “Results” value is “R” and the “drug sensitivity of the strain, result in words” value (“drug sensitivity of the strain” below) was “drug resistance”.

Regarding `O=C(N[C@H](CO)[C@H](O)c1ccc([N+](=O)[O-])cc1)C(Cl)Cl` [Chloramphenicol], the “Results” value is “S”.

For the compound `CO/N=C(\C(=O)N[C@@H]1C(=O)N2C(C(=O)O)=C(COC(C)=O)CS[C@H]12)c1csc(N)n1` [Cefotaxime], the “Results” value is listed as “I”.

As for `CN(C)[C@@H]1C(O)=C(C(N)=O)C(=O)[C@@]2(O)C(O)=C3C(=O)c4c(O)cccc4[C@@](C)(O)[C@H]3C[C@@H]12` [Tetracycline], the “Results” value was “R”.

As to `CC[C@H]1OC(=O)[C@H](C)[C@@H](O[C@H]2C[C@@](C)(OC)[C@@H](O)[C@H](C)O2)[C@H](C)[C@@H](O[C@@H]2O[C@H](C)C[C@H](N(C)C)[C@H]2O)[C@](C)(O)C[C@@H](C)C(=O)[C@H](C)[C@@H](O)[C@]1(C)O` [Erythromycin], the “Results” value is “R” and the “drug sensitivity of the strain” value is reported as “drug resistance”.

`CC1(C)S[C@@H]2[C@H](NC(=O)[C@H](N)c3ccccc3)C(=O)N2[C@H]1C(=O)O` [Ampicillin]: the “Results” value is “S”.

Take `CC[C@H]1OC(=O)[C@H](C)[C@@H](O[C@H]2C[C@@](C)(OC)[C@@H](O)[C@H](C)O2)[C@H](C)[C@@H](O[C@@H]2O[C@H](C)C[C@H](N(C)C)[C@H]2O)[C@](C)(OC)C[C@@H](C)C(=O)[C@H](C)[C@@H](O)[C@]1(C)O` [Clarithromycin]: the “Results” value is “S”.

With `CC1(C)S[C@@H]2[C@H](NC(=O)C(C(=O)O)c3ccccc3)C(=O)N2[C@H]1C(=O)O` (stereo partly shown) [Carbenicillin], the “Results” value is “S”.

Turning to `CO/N=C(\C(=O)N[C@@H]1C(=O)N2C(C(=O)O)=C(CSc3nc(=O)c(=O)[nH]n3C)CS[C@H]12)c1csc(N)n1` [Ceftriaxone], the “Results” value is reported as “R” and the “drug sensitivity of the strain” value was “drug resistance”.

With `NC[C@H]1O[C@H](O[C@H]2[C@H](O)[C@@H](O[C@H]3O[C@H](CO)[C@@H](O)[C@H](N)[C@H]3O)[C@H](N)C[C@@H]2N)[C@H](O)[C@@H](O)[C@@H]1O` [Kanamycin], the “Results” value was “R”.

In the case of Polymyxin B, the “Results” value was “R” and the “drug sensitivity of the strain” value is listed as “drug resistance”.

Take `CO[C@H]1/C=C/O[C@@]2(C)Oc3c(C)c(O)c4c(O)c(c(/C=N/N5CCN(C)CC5)c(O)c4c3C2=O)NC(=O)/C(C)=C\C=C\[C@H](C)[C@H](O)[C@@H](C)[C@@H](O)[C@@H](C)[C@H](OC(C)=O)[C@@H]1C` [Rifampicin]: the “Results” value was “I”.

As for `CCC[C@@H]1C[C@@H](C(=O)N[C@@H]([C@H]2O[C@H](SC)[C@H](O)[C@@H](O)[C@H]2O)[C@@H](C)O)N(C)C1` [Lincomycin], the “Results” value is “R” and the “drug sensitivity of the strain” value is “drug resistance”.

Turning to `CCn1cc(C(=O)O)c(=O)c2cc(F)c(N3CCNCC3)cc21` [Norfloxacin], the “Results” value is “R” and the “drug sensitivity of the strain” value is “drug resistance”.

As to `[H]/N=C(/N)N[C@H]1[C@H](O)[C@@H](O)[C@H](O[C@@H]2O[C@@H](C)[C@](O)(C=O)[C@H]2O[C@@H]2O[C@@H](CO)[C@H](O)[C@@H](O)[C@@H]2NC)[C@@H](N/C(N)=N\[H])[C@@H]1O` [Streptomycin], the “Results” value is “R” and the “drug sensitivity of the strain” value is listed as “drug resistance”.

Turning to `NC[C@H]1O[C@H](O[C@H]2[C@H](O)[C@@H](O[C@H]3O[C@H](CO)[C@@H](O)[C@H](N)[C@H]3O)[C@H](N)C[C@@H]2N)[C@H](N)C[C@@H]1O` [Tobramycin], the “Results” value was “R” and the “drug sensitivity of the strain” value is reported as “drug resistance”.

Turning to Neomycin, the “Results” value is listed as “R” and the “drug sensitivity of the strain” value is on record as “drug resistance”.

Regarding Penicillin, the “Results” value is reported as “S”.

Consider `CC1COc2c(N3CCN(C)CC3)c(F)cc3c(=O)c(C(=O)O)cn1c23` (stereo not shown) [Ofloxacin], for which the “Results” value is “R”.
